# Experimental data published in the supplement of paper PMC10307832.
# Legend:
# Assay in all cases: relative viability (nuclei count vs DMSO), 5 days (fraction); higher = more cells survive
# R406 + Bortezomib = compound: COc1cc(Nc2ncc(F)c(Nc3ccc4c(n3)NC(=O)C(C)(C)O4)n2)cc(OC)c1OC [R406] + CC(C)C[C@H](NC(=O)[C@H](Cc1ccccc1)NC(=O)c1cnccn1)B(O)O [Bortezomib] (partner 0.002 µM)
# In short: (§1)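 A single step with final 0.05% Triton X-100, 1% formaldehyde and 1 ug/ml Hoechst fixed the cells and stained nuclei 5 days after treatment. Lung cancer cell lines in 1536-well plates had been treated by pin tool the day after seeding with one drug alone or a fixed anchor-drug dose plus five library-drug doses (not always all listed) in √10 steps, and nuclei were counted on 4× images. Relative viability is the ratio of nuclei in treated wells to nuclei in vehicle wells, taken as the median of duplicate plates.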
# R406 + Vorinostat = compound: COc1cc(Nc2ncc(F)c(Nc3ccc4c(n3)NC(=O)C(C)(C)O4)n2)cc(OC)c1OC [R406] + O=C(CCCCCCC(=O)Nc1ccccc1)NO [Vorinostat] (partner 1 µM)
# In short: as §1
# R406 + Luminespib = compound: COc1cc(Nc2ncc(F)c(Nc3ccc4c(n3)NC(=O)C(C)(C)O4)n2)cc(OC)c1OC [R406] + CCNC(=O)c1noc(-c2cc(C(C)C)c(O)cc2O)c1-c1ccc(CN2CCOCC2)cc1 [Luminespib] (partner 0.01 µM)
# In short: as §1
# R406 + Crizotinib = compound: COc1cc(Nc2ncc(F)c(Nc3ccc4c(n3)NC(=O)C(C)(C)O4)n2)cc(OC)c1OC [R406] + C[C@@H](Oc1cc(-c2cnn(C3CCNCC3)c2)cnc1N)c1c(Cl)ccc(F)c1Cl [Crizotinib] (partner 1 µM)
# In short: as §1
cell line,measurement,setting,value
UMC-11,relative viability,R406 + Bortezomib; first compound 0.08 µM,0.78
same,relative viability,R406 + Bortezomib; first compound 0.253 µM,0.996
same,relative viability,R406 + Bortezomib; first compound 0.8 µM,0.99
same,relative viability,R406 + Bortezomib; first compound 2.53 µM,0.251
same,relative viability,R406 + Bortezomib; first compound 8 µM,0.342
same,relative viability,R406 + Vorinostat; first compound 0.08 µM,0.361
same,relative viability,R406 + Vorinostat; first compound 0.253 µM,0.312
same,relative viability,R406 + Vorinostat; first compound 0.8 µM,0.39
same,relative viability,R406 + Vorinostat; first compound 2.53 µM,0.304
same,relative viability,R406 + Vorinostat; first compound 8 µM,0.127
same,relative viability,R406 + Luminespib; first compound 0.08 µM,1.09
same,relative viability,R406 + Luminespib; first compound 0.253 µM,1.07
same,relative viability,R406 + Luminespib; first compound 0.8 µM,1.12
same,relative viability,R406 + Luminespib; first compound 2.53 µM,0.835
same,relative viability,R406 + Luminespib; first compound 8 µM,0.418
same,relative viability,R406 + Crizotinib; first compound 0.08 µM,0.628
same,relative viability,R406 + Crizotinib; first compound 0.253 µM,0.88
same,relative viability,R406 + Crizotinib; first compound 0.8 µM,0.663
same,relative viability,R406 + Crizotinib; first compound 2.53 µM,0.392
same,relative viability,R406 + Crizotinib; first compound 8 µM,0.119
